Among the data in PMC8158703, “The Glitazone Class of Drugs as Carbonic Anhydrase Inhibitors—A Spin-Off Discovery from Fragment Screening” (Molecules, 2021) are Kd and Ki values, retold here.

The target in one test is CA II. The following applies: CA II hit fragments, SPR; cited from earlier work.
Another test has as its target T1, hCA XIV (Homo sapiens, UniProt Q9ULX7).
T1 construct: made in house
Kind of test: Stopped flow CO2 hydrase assay. It counts as biochemical. Particulars: mean from three assays, errors ±10%. The procedure:
(§1) CA enzyme inhibition data was determined by measuring the CA-catalysed hydration of CO2 in the presence of 11–13. In addition to the ubiquitous hCA II, all other catalytically active hCA enzymes (I, IV, VA, VB, VI, VII, IX, XII, XIII and XIV) were assessed, providing a comprehensive profile of CA enzyme inhibition, Table 2. […]. Different CAs have different expression profiles and cell locations. […] A comparison between hCA VII and hCA II has identified 7 residue differences (S65A, Q67N, D69E, K91I, A135V, S136Q, S204L) among the 23 residues within the active site cavity. […] Here, we propose that this further extends to the minimal differences in observed active site compound binding strength between these isozymes. […]. Furthermore, they are considered a validated target for antiobesity drug development, in which they have been proposed to have an involvement in insulin secretion, however this mechanism is not yet fully understood. […]. The appreciable inhibition of the glitazones for the different CA isozymes highlights the potential for CA-mediated off-target effects of these drugs when used clinically, and given the reported polypharmacology observed for these compounds, this may provide an avenue for further understanding of their mechanism of action.
(§2) An Applied Photophysics stopped-flow instrument was used for assaying the inhibition of the CA catalysed CO2 hydration reaction. Phenol red (0.2 mM) was used as indicator, monitored at the absorbance maximum of 557 nm. Reactions were carried out in a HEPES (10 mM, pH 7.4) buffer and NaClO4 (10 mM), for maintaining the ionic strength constant, the ClO4^- anion is not inhibitory against most CA isoforms at 25 °C [62]. […]. Inhibitors were tested in the concentration range of 0.01 nM–100 μM, and at least six traces of the initial 5–10% of the reaction have been used for determining the initial velocity. The uncatalyzed rates were determined in the same manner and subtracted from the total observed rates. Stock solutions of inhibitor (1 mM) were prepared in distilled, deionized water with 10–20% (v/v) DMSO (which is not inhibitory at these concentrations), and dilutions were performed thereafter with the assay buffer. Inhibitor and enzyme solutions were preincubated together for 15 min at room temperature prior to assay to allow for the formation of the enzyme inhibitor complex. The inhibition constants were obtained by nonlinear least squares methods using PRISM 3 (GraphPad Software Inc, San Diego, CA, USA). […]. The catalytic activity (in the absence of inhibitors) of the different enzymes was calculated from Lineweaver–Burk plots and represent the mean from at least three different determinations. Enzyme concentrations in the assay system were in the range of 3.8–9.5 nM. Enzymes used here were recombinant ones, prepared and purified as described earlier.

For a further test, the target named is T2, hCA VA (Homo sapiens, UniProt P35218).
T2 construct: made in house
Kind of test: Stopped flow CO2 hydrase assay. It counts as biochemical. Particulars: mean from three assays, errors ±10%. The procedure:
as §1, §2

The next test has as its target T3, hCA XIII (Homo sapiens, UniProt Q8N1Q1).
T3 construct: made in house
Description: Stopped flow CO2 hydrase assay. Format: biochemical. The following applies: mean from three assays, errors ±10%. Here is the method:
as §1, §2

A further test has as its target T4, hCA VI (Homo sapiens, UniProt P23280).
T4 construct: made in house
Description: Stopped flow CO2 hydrase assay. Format: biochemical. Particulars: mean from three assays, errors ±10%. The procedure:
as §1, §2

The next test concerns the target T5, hCA VB (Homo sapiens, UniProt Q9Y2D0).
T5 construct: made in house
Kind of test: Stopped flow CO2 hydrase assay. It counts as biochemical. Particulars: mean from three assays, errors ±10%. Here is the method: as §1, §2

A further test deals with T6, hCA VII (Homo sapiens, UniProt P43166).
T6 construct: made in house
Description: Stopped flow CO2 hydrase assay. Format: biochemical. Particulars: mean from three assays, errors ±10%. The procedure: (§3) In addition to the ubiquitous hCA II, all other catalytically active hCA enzymes (I, IV, VA, VB, VI, VII, IX, XII, XIII and XIV) were assessed, providing a comprehensive profile of CA enzyme inhibition, Table 2. […] Different CAs have different expression profiles and cell locations. […] A comparison between hCA VII and hCA II has identified 7 residue differences (S65A, Q67N, D69E, K91I, A135V, S136Q, S204L) among the 23 residues within the active site cavity.
(§4) An Applied Photophysics stopped-flow instrument was used for assaying the inhibition of the CA catalysed CO2 hydration reaction. […] The uncatalyzed rates were determined in the same manner and subtracted from the total observed rates. […] Inhibitor and enzyme solutions were preincubated together for 15 min at room temperature prior to assay to allow for the formation of the enzyme inhibitor complex. The inhibition constants were obtained by nonlinear least squares methods using PRISM 3 (GraphPad Software Inc, San Diego, CA, USA). […] The catalytic activity (in the absence of inhibitors) of the different enzymes was calculated from Lineweaver–Burk plots and represent the mean from at least three different determinations. […] Enzymes used here were recombinant ones, prepared and purified as described earlier.

In a further test the target is T7, hCA II (Homo sapiens, UniProt P00918).
T7 construct: made in house
Kind of test: Stopped flow CO2 hydrase assay. Format: biochemical. The following applies: mean from three assays, errors ±10%. Here is the method: as §3, §4

A further test deals with T8, hCA XII (Homo sapiens, UniProt O43570).
T8 construct: made in house
Description: Stopped flow CO2 hydrase assay. Particulars: mean from three assays, errors ±10%. It counts as biochemical. Here is the method:
as §3, §4

A further test concerns the target T9, hCA IX (Homo sapiens, UniProt Q16790).
T9 construct: made in house
Kind of test: Stopped flow CO2 hydrase assay. Format: biochemical. The following applies: mean from three assays, errors ±10%. The procedure: as §3, §4

The target of the next test is T10, hCA I (Homo sapiens, UniProt P00915).
T10 construct: made in house
Description: Stopped flow CO2 hydrase assay. It counts as biochemical. Particulars: mean from three assays, errors ±10%. The procedure:
as §3, §4

A further test addresses T11, hCA IV (Homo sapiens, UniProt P22748).
T11 construct: made in house
Description: Stopped flow CO2 hydrase assay. Format: biochemical. The following applies: mean from three assays, errors ±10%. Here is the method: as §3, §4

Each structure is given as a SMILES string. Counter-ions that a name gives are not always drawn.

T3 sequence (Q8N1Q1 whole entry): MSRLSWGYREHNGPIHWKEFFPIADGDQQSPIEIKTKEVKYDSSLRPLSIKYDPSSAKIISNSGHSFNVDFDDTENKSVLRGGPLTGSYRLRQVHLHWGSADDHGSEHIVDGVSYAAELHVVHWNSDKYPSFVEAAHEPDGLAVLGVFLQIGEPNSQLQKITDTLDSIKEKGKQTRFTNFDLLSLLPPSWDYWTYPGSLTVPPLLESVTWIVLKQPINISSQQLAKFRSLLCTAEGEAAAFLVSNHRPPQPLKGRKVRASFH
T1 sequence (Q9ULX7 16-337): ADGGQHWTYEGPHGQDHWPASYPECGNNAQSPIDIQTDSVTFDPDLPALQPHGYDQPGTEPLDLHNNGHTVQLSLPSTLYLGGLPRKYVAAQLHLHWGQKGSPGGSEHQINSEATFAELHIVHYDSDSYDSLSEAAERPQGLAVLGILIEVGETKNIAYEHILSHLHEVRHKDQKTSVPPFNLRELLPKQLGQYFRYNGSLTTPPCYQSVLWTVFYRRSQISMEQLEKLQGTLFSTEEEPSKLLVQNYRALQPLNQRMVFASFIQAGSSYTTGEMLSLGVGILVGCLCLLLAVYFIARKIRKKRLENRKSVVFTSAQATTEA
T2 sequence (P35218 39-305): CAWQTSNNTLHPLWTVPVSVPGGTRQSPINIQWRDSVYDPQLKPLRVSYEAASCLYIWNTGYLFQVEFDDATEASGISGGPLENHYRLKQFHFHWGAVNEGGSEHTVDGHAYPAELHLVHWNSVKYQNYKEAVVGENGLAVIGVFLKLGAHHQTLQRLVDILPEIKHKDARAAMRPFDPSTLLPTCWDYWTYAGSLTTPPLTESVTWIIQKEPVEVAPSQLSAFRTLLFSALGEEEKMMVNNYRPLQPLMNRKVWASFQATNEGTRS
T4 sequence (P23280 18-308): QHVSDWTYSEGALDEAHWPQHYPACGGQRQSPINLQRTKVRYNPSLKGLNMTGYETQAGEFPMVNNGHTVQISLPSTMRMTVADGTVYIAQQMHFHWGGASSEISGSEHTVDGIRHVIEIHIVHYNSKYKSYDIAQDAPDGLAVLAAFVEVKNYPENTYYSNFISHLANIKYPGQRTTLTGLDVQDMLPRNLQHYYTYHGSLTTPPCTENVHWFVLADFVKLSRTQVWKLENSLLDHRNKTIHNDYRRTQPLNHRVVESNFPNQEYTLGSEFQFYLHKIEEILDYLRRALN
T5 sequence (Q9Y2D0 34-317): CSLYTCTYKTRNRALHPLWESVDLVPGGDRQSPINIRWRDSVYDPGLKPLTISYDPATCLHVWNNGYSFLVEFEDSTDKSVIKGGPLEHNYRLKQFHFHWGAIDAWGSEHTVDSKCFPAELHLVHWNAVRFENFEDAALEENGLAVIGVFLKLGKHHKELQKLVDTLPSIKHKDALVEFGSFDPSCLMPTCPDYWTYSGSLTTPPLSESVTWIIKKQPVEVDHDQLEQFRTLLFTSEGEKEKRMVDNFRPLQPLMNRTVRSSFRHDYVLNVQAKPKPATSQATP
T10 sequence (P00915 whole entry): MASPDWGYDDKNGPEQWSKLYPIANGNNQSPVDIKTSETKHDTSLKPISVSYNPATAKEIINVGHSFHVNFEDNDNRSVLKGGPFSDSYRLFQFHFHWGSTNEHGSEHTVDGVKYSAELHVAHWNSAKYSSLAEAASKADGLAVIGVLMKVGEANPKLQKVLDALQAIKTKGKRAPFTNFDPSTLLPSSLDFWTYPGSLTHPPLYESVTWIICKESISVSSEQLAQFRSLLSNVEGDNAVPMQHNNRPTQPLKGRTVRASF
T11 sequence (P22748 19-312): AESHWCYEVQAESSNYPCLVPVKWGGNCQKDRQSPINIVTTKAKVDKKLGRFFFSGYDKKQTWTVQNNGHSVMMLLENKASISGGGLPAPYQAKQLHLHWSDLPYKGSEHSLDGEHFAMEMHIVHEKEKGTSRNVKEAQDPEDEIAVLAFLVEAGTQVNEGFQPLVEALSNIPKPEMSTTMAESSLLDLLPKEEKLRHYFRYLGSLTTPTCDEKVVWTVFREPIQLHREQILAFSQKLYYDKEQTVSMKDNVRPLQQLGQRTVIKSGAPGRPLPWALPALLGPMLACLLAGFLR
T8 sequence (O43570 25-354): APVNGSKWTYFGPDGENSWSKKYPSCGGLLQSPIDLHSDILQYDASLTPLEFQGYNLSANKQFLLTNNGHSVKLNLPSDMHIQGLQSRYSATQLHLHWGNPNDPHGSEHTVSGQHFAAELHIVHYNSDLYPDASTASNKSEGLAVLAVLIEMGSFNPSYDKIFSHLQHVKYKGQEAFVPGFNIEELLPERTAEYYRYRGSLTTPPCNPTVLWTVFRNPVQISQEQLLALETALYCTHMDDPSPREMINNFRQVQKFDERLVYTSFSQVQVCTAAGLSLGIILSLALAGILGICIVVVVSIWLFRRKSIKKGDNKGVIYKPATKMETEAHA
T6 sequence (P43166 whole entry): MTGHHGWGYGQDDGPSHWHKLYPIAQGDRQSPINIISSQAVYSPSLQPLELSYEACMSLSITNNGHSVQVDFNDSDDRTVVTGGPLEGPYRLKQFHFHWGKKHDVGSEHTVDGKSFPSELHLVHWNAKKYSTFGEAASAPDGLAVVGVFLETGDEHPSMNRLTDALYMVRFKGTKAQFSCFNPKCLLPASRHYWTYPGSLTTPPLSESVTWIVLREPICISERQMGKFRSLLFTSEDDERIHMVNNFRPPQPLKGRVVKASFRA

As to `O=C(O)Cc1cccc(OCc2ccccc2)c1` [Compound 3], the Kd (commonly a measure of binding affinity in units of concentration) on CA II was 1080 µM.

On to `O=C(O)c1cccc(Oc2ccccc2)c1` [Compound 2], for which the dissociation constant (Kd) at CA II is 1280 µM.

Consider `Clc1ccc(OCc2nn[nH]n2)cc1` [Compound 6], for which the Kd on CA II is 709 µM.

Turning to `CN(CCOc1ccc(CC2SC(=O)NC2=O)cc1)c1ccccn1` (centres unmarked) [Compound 12, 5-[[4-[2-(methyl-2-pyridinylamino)ethoxy]phenyl]methyl]-2,4-thiazolidinedione], the Ki (in general, the equilibrium dissociation constant of an inhibitor or competing ligand from its target) on hCA XIV was 2.3 µM; on hCA VA it was 8.2 µM; at hCA XIII, 7.4 µM; at hCA VI, 5.9 µM; on hCA VB, 40.9 µM; on hCA VII, 6.1 µM. Further, the Ki is 0.75 µM at hCA II; 3.7 µM at hCA XII; 2.5 µM on hCA IX; 16.3 µM at hCA I; 58.9 µM on hCA IV.

With `C/C(=C\C(=O)O)c1ccc(Cl)cc1` [Compound 1], the Kd on CA II was 905 µM.

For the molecule `CCc1ccc(CCOc2ccc(CC3SC(=O)NC3=O)cc2)nc1` (centres unmarked) [Compound 13, 5-[[4-[2-(5-ethyl-2-pyridinyl)ethoxy]phenyl]methyl]-2,4-thiazolidinedione monohydrochloride], the inhibition constant (Ki) at hCA XIV amounted to 6.6 µM; at hCA VA, 5.3 µM; on hCA XIII it was 21.5 µM; on hCA VI it was 19.8 µM; on hCA VB, 36.2 µM; on hCA VII, 4.9 µM. Also, the inhibition constant Ki on hCA II was 7.1 µM; on hCA IX it was 0.75 µM; on hCA I, 39.6 µM; at hCA IV it was 92.1 µM.

As to `Cc1c(C)c2c(c(C)c1O)CCC(C)(COc1ccc(CC3SC(=O)NC3=O)cc1)O2` (racemic) [Compound 11, (±)-5-[4-[(6-Hydroxy-2,5,7,8-tetramethylchroman-2-yl)methoxy]benzyl]-2,4-thiazolidinedione], the inhibition constant Ki at hCA XIV was found to be 16.8 µM; on hCA VA, 12.4 µM; on hCA XIII it was 32.3 µM; at hCA VI it was 46.7 µM; on hCA VB, 28.9 µM; on hCA II it was 1.3 µM. For the same molecule, the Ki on hCA XII is 0.92 µM; at hCA IX, 1.3 µM; on hCA I, 57.2 µM; at hCA IV, above 100 µM.

For the molecule `Clc1ccccc1OCc1nn[nH]n1` [Compound 5], the equilibrium dissociation constant (Kd) on CA II was 631 µM.

`Cc1ccnc(S(N)(=O)=O)n1` [Compound 4]: the Kd at CA II was 1.4 µM.

With `O=C(CSc1nnc[nH]1)c1ccccc1` [Compound 7], at CA II, the dissociation constant (Kd) was 194 µM.
